# Test results taken from patent publication US8163805B2, “Small molecule antagonists of Bcl-2 family proteins” (The Regents of the University of Michigan, priority 2001, dated 2012).
# Assays:
# UM-SCC-12 = assay: 6-day MTT cell growth, UM-SCC-12; type: cell-based, human; settings: read-out: IC50, inhibition of cell growth
# Method: (§1) UM-SCC and human fibroblast cell lines were continuously exposed to varying concentrations of (−)-gossypol in 6-day MTT cell survival assays. Control wells contained media (DMEM) with vehicle alone. For each data point n=5.
# (§2) Ten squamous cell carcinoma cell lines established at the University of Michigan (UM-SCC) and three human fibroblast lines were grown in Dulbecco's modified Eagle's medium (DMEM) supplemented with 10% fetal bovine serum. UM-SCC cell lines originated from the larynx (n=2; UM-SCC-12, -23), oral cavity/oropharynx (n=5; UM-SCC-1, -6, -14A, -74B, -81B), hypopharynx (n=1; UM-SCC-22A) and metastases from laryngeal cancers (n=2; UM-SCC-17B, -25). Human fibroblast cell lines originated from surgical specimens (fibroblast cell lines 2 and 3) and neonatal foreskin samples (fibroblast cell line 1).
# (§3) Logarithmically growing cell lines were cultured, washed, counted, and plated at 5,000-15,000 cells per well in duplicate wells of 96-well plates and incubated in DMEM overnight. […] The MTT assay measures cell survival based on mitochondrial conversion of MTT from a soluble tetrazolium salt into an insoluble colored formazan precipitate, which is dissolved in dimethyl sulfoxide and quantitated by spectrophotometry. […] Percent absorbance relative to control was plotted as a linear function of drug concentration.
# [1] = system: colon cancer cell line HT-29 xenograft; settings: Table 12; cisplatin 10 mg/kg i.v. twice q week; most mice, during the 2nd week of treatment; dose too high
# [2] = system: Fib-3 (fibroblast cell line 3); assay: 6-day MTT cell growth, Fib-3; type: cell-based, human; settings: read-out: IC50, inhibition of cell growth
# Method: as §1, §2, §3
# UM-SCC-22A = assay: 6-day MTT cell growth, UM-SCC-22A; type: cell-based, human; settings: read-out: IC50, inhibition of cell growth
# Method: as §1, §2, §3
# [3] = system: Fib-1 (fibroblast cell line 1); assay: 6-day MTT cell growth, Fib-1; type: cell-based, human; settings: read-out: IC50, inhibition of cell growth
# Method: as §1, §2, §3
# UM-SCC-23 = assay: 6-day MTT cell growth, UM-SCC-23; type: cell-based, human; settings: read-out: IC50, inhibition of cell growth
# Method: as §1, §2, §3
# UM-SCC-14A = assay: 6-day MTT cell growth, UM-SCC-14A; type: cell-based, human; settings: read-out: IC50, inhibition of cell growth
# Method: as §1, §2, §3
# UM-SCC-25 = assay: 6-day MTT cell growth, UM-SCC-25; type: cell-based, human; settings: read-out: IC50, inhibition of cell growth
# Method: as §1, §2, §3
# UM-SCC-74B = assay: 6-day MTT cell growth, UM-SCC-74B; type: cell-based, human; settings: read-out: IC50, inhibition of cell growth
# Method: as §1, §2, §3
# UM-SCC-81B = assay: 6-day MTT cell growth, UM-SCC-81B; type: cell-based, human; settings: read-out: IC50, inhibition of cell growth
# Method: as §1, §2, §3
# UM-SCC-1 = assay: 6-day MTT cell growth, UM-SCC-1; type: cell-based, human; settings: read-out: IC50, inhibition of cell growth
# Method: as §1, §2, §3
# UM-SCC-17B = assay: 6-day MTT cell growth, UM-SCC-17B; type: cell-based, human; settings: read-out: IC50, inhibition of cell growth
# Method: as §1, §2, §3
# UM-SCC-6 = assay: 6-day MTT cell growth, UM-SCC-6; type: cell-based, human; settings: read-out: IC50, inhibition of cell growth
# Method: as §1, §2, §3
# [4] = system: PC-3 human prostate cancer bilateral xenografts; assay: PC-3 xenograft, (−)-gossypol alone and with cisplatin (Table 11); type: in vivo, NCr-nu nude mouse; settings: mouse, in vivo
# [5] = system: Fib-2 (fibroblast cell line 2); assay: 6-day MTT cell growth, Fib-2; type: cell-based, human; settings: read-out: IC50, inhibition of cell growth
# Method: as §1, §2, §3
# [6] = system: A549 non-small cell lung carcinoma xenograft; settings: mouse, in vivo
# [7] = system: A549 non-small cell lung carcinoma xenograft; assay: A549 non-small cell lung carcinoma xenograft, (−)-gossypol with paclitaxel; settings: Table 13; paclitaxel 15 mg/kg i.p. twice q week for 3 weeks, alone
Structure (SMILES),IC50 (UM-SCC-12) [µM],mortality in cisplatin treated group [1],IC50 [2] [µM],IC50 (UM-SCC-22A) [µM],IC50 [3] [µM],IC50 (UM-SCC-23) [µM],IC50 (UM-SCC-14A) [µM],IC50 (UM-SCC-25) [µM],IC50 (UM-SCC-74B) [µM],IC50 (UM-SCC-81B) [µM],IC50 (UM-SCC-1) [µM],IC50 (UM-SCC-17B) [µM],IC50 (UM-SCC-6) [µM],time after CDDP treatment stopped when mice started to gain back the weight [4],IC50 [5] [µM],weight loss [6],tumor growth inhibition [7]
"N.N.[Cl][Pt][Cl] [Cisplatin, cisplatin, reference compound]",22,mice were dead in the cisplatin,> 50,5,> 50,25,29,43,12,22,30,13,> 50,to gain back the weight 1-2 weeks,> 50,,
CC(=O)O[C@H]1C(=O)[C@@]2(C)[C@H]([C@H](OC(=O)c3ccccc3)[C@]3(O)C[C@H](OC(=O)[C@H](O)[C@@H](NC(=O)c4ccccc4)c4ccccc4)C(C)=C1C3(C)C)[C@]1(OC(C)=O)CO[C@@H]1C[C@@H]2O [Paclitaxel],,,,,,,,,,,,,,,,There was no weight loss in mice,achieved about 67% tumor growth
